The values below come from ChEMBL document CHEMBL1201862, “PubChem BioAssay data set” (2004).

Test systems include OVCAR-4; SN12C; SK-OV-3; SK-MEL-2; EKVX; CAKI-1; SF-268; MDA-N; MDA-MB-231; SNB-19; UACC-257; RXF 393; SK-MEL-5; TK-10; Malme-3M; MOLT-4; NCI-H226; M14; CCRF-CEM.
Holding throughout (assay): NCI-60 cell line screen, 48 h

The structures appear in SMILES notation.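 Tested at 5 concentrations; 48 h exposure; 96-well plates; endpoints linearly interpolated, else capped at highest concentration. GI50 is the concentration that inhibits growth by half.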 Activity calls are given as the source filed them. Rule as the data show it: active = GI50 up to about 1.1 µM and inactive = higher. Bounds are passed on as bounds.

As to `CC[N+](CC)(CCNCC(N)=O)CC(N)=O`, the GI50 in the assay with OVCAR-4, in the assay on SN12C, in the assay on SK-OV-3, in the assay on SK-MEL-2, in the assay on EKVX and with CAKI-1 was > 10 µM (inactive) each time. Besides, the GI50 in the assay with SF-268, in the assay with MDA-N, with MDA-MB-231, in the assay with SNB-19, in the assay on UACC-257 and in the assay on RXF 393 was > 10 µM (inactive) throughout. The GI50 in the assay on SK-MEL-5, in the assay with TK-10, in the assay with Malme-3M, in the assay on MOLT-4, with NCI-H226 and with M14 was > 10 µM (inactive) each time. Also, the GI50 in the assay with CCRF-CEM was > 10 µM (inactive).
As for `Oc1ccc(Cl)cc1C1=NC(NCN2CCN(CNC3=NC(c4ccccc4)CC(c4cc(Cl)ccc4O)=N3)CC2)=NC(c2ccccc2)C1` (configuration not stated), the GI50 in the assay on OVCAR-4 is 28.9 µM (inactive); in the assay on SN12C, 24.7 µM (inactive); in the assay on SK-OV-3 it was 66.7 µM (inactive); in the assay on SK-MEL-2, 43 µM (inactive); in the assay with EKVX, 48.3 µM (inactive); with CAKI-1, 29.5 µM (inactive). The GI50 with SF-268 was 32.7 µM (inactive); in the assay on MDA-N, 50.2 µM (inactive); with MDA-MB-231, > 100 µM (inactive); in the assay on SNB-19 it was 41.6 µM (inactive); in the assay on UACC-257, > 100 µM (inactive); with RXF 393, 22 µM (inactive). Also, the GI50 in the assay on SK-MEL-5 is 93.5 µM (inactive); with TK-10, 48.8 µM (inactive); in the assay on Malme-3M, 93.5 µM (inactive); in the assay with NCI-H226, 53.8 µM (inactive); in the assay on M14, 58.6 µM (inactive); with CCRF-CEM, 21.5 µM (inactive).
For `O=C1/C(=C/c2ccc3c(c2)OCO3)Sc2scc(-c3ccc(O)c(O)c3)[n+]21`, the GI50 in the assay on OVCAR-4 was 4.2 µM (inactive); in the assay on SN12C, 2.04 µM (inactive); in the assay on SK-OV-3, 8.11 µM (inactive); in the assay with SK-MEL-2, 10.8 µM (inactive); in the assay on EKVX it was 2.67 µM (inactive); with CAKI-1, 1.53 µM (inactive). The GI50 in the assay with SF-268 is 3.9 µM (inactive); in the assay on MDA-N, 3.12 µM (inactive); in the assay with MDA-MB-231, 3.54 µM (inactive); in the assay with SNB-19, 10.7 µM (inactive); in the assay with UACC-257 it was 3.6 µM (inactive); with RXF 393, 3.11 µM (inactive). Besides, the GI50 with SK-MEL-5 was 2.54 µM (inactive); in the assay on TK-10 it was 2.04 µM (inactive); with MOLT-4 it was 0.927 µM (active); in the assay on NCI-H226, 13.3 µM (inactive); in the assay with M14 it was 3 µM (inactive); with CCRF-CEM, 0.264 µM (active).
On to `CC#CCOC(=O)c1ccccc1OC(C)=O`, for which the GI50 in the assay on OVCAR-4, in the assay with SN12C, in the assay on SK-OV-3, in the assay with SK-MEL-2, in the assay with EKVX and in the assay with CAKI-1 was > 100 µM (inactive) in each case. The GI50 in the assay with SF-268, with MDA-N, in the assay with MDA-MB-231, with SNB-19, in the assay on UACC-257 and in the assay with RXF 393 was > 100 µM (inactive) in each case. Besides, the GI50 with SK-MEL-5, with TK-10, in the assay with MOLT-4, with NCI-H226, in the assay on M14 and in the assay with CCRF-CEM was > 100 µM (inactive) each time.
Consider `CN(O)C(=O)c1cccc(Cl)c1`, for which the GI50 in the assay on OVCAR-4, in the assay with SN12C, in the assay with SK-OV-3, in the assay on SK-MEL-2, with EKVX and in the assay on CAKI-1 was > 100 µM (inactive) throughout. Also, the GI50 with SF-268, with MDA-N, in the assay on MDA-MB-231, with SNB-19, in the assay with UACC-257 and with RXF 393 was > 100 µM (inactive) throughout. The GI50 is > 100 µM (inactive) in the assay with SK-MEL-5; > 100 µM (inactive) in the assay on TK-10; 51.2 µM (inactive) with MOLT-4; > 100 µM (inactive) in the assay on NCI-H226; > 100 µM (inactive) in the assay with M14; 60 µM (inactive) in the assay on CCRF-CEM.
For the molecule `COc1ccc2nc3ccc(OC)cc3c(SCc3ccc([N+](=O)[O-])cc3)c2c1`, the GI50 was 19 µM (inactive) in the assay with OVCAR-4; > 100 µM (inactive) with SN12C; > 100 µM (inactive) with SK-OV-3; > 100 µM (inactive) with SK-MEL-2; > 100 µM (inactive) with EKVX; 44.1 µM (inactive) with CAKI-1. For the same molecule, the GI50 in the assay on SF-268 is 54.7 µM (inactive); in the assay on MDA-N, > 100 µM (inactive); with MDA-MB-231, 39.2 µM (inactive); in the assay on SNB-19, > 100 µM (inactive); with UACC-257, > 100 µM (inactive); with RXF 393, > 100 µM (inactive). Also, the GI50 in the assay with TK-10 is 34 µM (inactive); in the assay with Malme-3M it was > 100 µM (inactive); with MOLT-4, > 100 µM (inactive); in the assay with NCI-H226, 42.8 µM (inactive); with M14, > 100 µM (inactive); with CCRF-CEM, > 100 µM (inactive).
Take `N#Cc1nc(CSCc2ccccc2)oc1N`: the GI50 in the assay on OVCAR-4, in the assay with SN12C, with SK-OV-3, with SK-MEL-2, in the assay on CAKI-1 and with SF-268 was > 100 µM (inactive) throughout. Besides, the GI50 with MDA-N is > 100 µM (inactive); in the assay with MDA-MB-231, > 100 µM (inactive); with UACC-257, > 100 µM (inactive); with RXF 393, > 100 µM (inactive); in the assay with TK-10, > 100 µM (inactive); in the assay with Malme-3M, 1.35 µM (inactive). For the same molecule, the GI50 is > 100 µM (inactive) with MOLT-4, > 100 µM (inactive) with NCI-H226, > 100 µM (inactive) with M14 and 19.8 µM (inactive) in the assay on CCRF-CEM.
Turning to `CC(=C/C=C/C=C(C)\C=C\C=C(\C)C(=O)O)/C=C/C=C(/C)C(=O)O`, the GI50 in the assay with OVCAR-4, with SN12C, in the assay on SK-OV-3, in the assay on SK-MEL-2, in the assay on CAKI-1 and in the assay with SF-268 was > 100 µM (inactive) each time. Moreover, the GI50 in the assay with MDA-N, in the assay with MDA-MB-231, in the assay on UACC-257, in the assay with RXF 393, in the assay with SK-MEL-5 and with TK-10 was > 100 µM (inactive) throughout. Moreover, the GI50 in the assay with Malme-3M, in the assay with MOLT-4, with NCI-H226, with M14 and in the assay with CCRF-CEM was > 100 µM (inactive) throughout.
